pIC50: −log10 of the molar value.
Target: T1, influenza A virus (IAV) PA-Nter fragment (amino acids 1-209) (Influenza A virus, UniProt P31343)
T1 construct: PA-Nter fragment (amino acids 1-209); made in house
Experiment: FRET endonuclease activity assay
Type: biochemical
Conditions: 10 μM compound; % reduction of v0 compared to untreated

`CC(C)NC(=O)c1c(O)c(=O)cc(CNS(=O)(=O)c2ccccc2)n1C` and `CNC(=O)c1c(O)c(=O)cc(CNS(=O)(=O)c2ccccc2)n1C` are the same in inhibition at 10 µM: 13% for the first, 13% for the second.

Compared with `CC(C)NC(=O)c1c(O)c(=O)cc(CNS(=O)(=O)c2cccc(Cl)c2)n1C`, `Cc1cccc(S(=O)(=O)NCc2cc(=O)c(O)c(C(=O)NC(C)C)n2C)c1` is higher in inhibition at 10 µM: 13% for the first, 36% for the second.

Going from `CC(C)NC(=O)c1c(O)c(=O)cc(CNS(=O)(=O)c2ccc(Cl)cc2)n1C` to `Cc1ccc(S(=O)(=O)NCc2cc(=O)c(O)c(C(=O)NC(C)C)n2C)cc1`, the inhibition at 10 µM falls from 11% to 8%.

First: CC(C)NC(=O)c1c(O)c(=O)ccn1C(C)Cc1ccccc1 (centres unmarked)
Second: CC(C)NC(=O)c1c(O)c(=O)cc(Cc2ccccc2-c2ccccc2)n1C
The inhibition at 10 µM of the first is lower: 7% for the first, 13% for the second.

Compared with `CNC(=O)c1c(O)c(=O)cc(Cc2ccccc2-c2ccccc2)n1C`, `Cn1c(Cc2ccccc2-c2ccccc2)cc(=O)c(O)c1C(N)=O` is higher in inhibition at 10 µM: 10% for the first, 17% for the second.

First: CNC(=O)c1c(O)c(=O)cc(CNS(=O)(=O)c2ccc(C)cc2)n1C
Second: CNC(=O)c1c(O)c(=O)cc(CNS(=O)(=O)c2ccc(Cl)cc2)n1C
The inhibition at 10 µM of the first is higher: 10% for the first, 7% for the second.

Compared with `CNC(=O)c1c(O)c(=O)cc(CNS(=O)(=O)c2cccc(C)c2)n1C`, `CNC(=O)c1c(O)c(=O)cc(CNS(=O)(=O)c2cccc(Cl)c2)n1C` is lower in inhibition at 10 µM: 33% for the first, 23% for the second.

Same assay, conditions: calculated from initial reaction velocities (v0); 0.5 μM PA-Nter, 1.6 μM RNA substrate

Going from `Cn1c(CNS(=O)(=O)c2ccccc2)cc(=O)c(O)c1C(=O)O` to `Cn1c(CNS(=O)(=O)c2cccc(Cl)c2)cc(=O)c(O)c1C(=O)O`, the pIC50 rises from 6.25 to 6.82 (0.57 log units). The second is the more potent here.

`Cn1c(CNS(=O)(=O)c2ccc(Cl)cc2)cc(=O)c(O)c1C(=O)O` and `Cc1ccc(S(=O)(=O)NCc2cc(=O)c(O)c(C(=O)O)n2C)cc1` are within 0.2 log units of each other in pIC50: 5.94 for the first, 6.01 for the second.

Compared with `Cn1c(CNS(=O)(=O)c2ccccc2Cl)cc(=O)c(O)c1C(=O)O`, `Cc1ccccc1S(=O)(=O)NCc1cc(=O)c(O)c(C(=O)O)n1C` is 0.41 log units lower in pIC50: 6.96 for the first, 6.55 for the second. The first is the more potent here.

First: Cc1cccc(S(=O)(=O)NCc2cc(=O)c(O)c(C(=O)O)n2C)c1
Second: CNC(=O)c1c(O)c(=O)cc(CNS(=O)(=O)c2ccccc2C)n1C
The pIC50 of the first is 1.37 log units higher: 6.28 for the first, 4.91 for the second.

`CC(C)NC(=O)c1c(O)c(=O)cc(CNS(=O)(=O)c2ccccc2Cl)n1C` and `Cc1ccccc1S(=O)(=O)NCc1cc(=O)c(O)c(C(=O)NC(C)C)n1C` are within 0.2 log units of each other in pIC50: 5.20 for the first, 5.34 for the second.

Compared with `Cn1c(Cc2ccccc2-c2ccccc2)cc(=O)c(O)c1C(=O)O`, `CNC(=O)c1c(O)c(=O)cc(CNS(=O)(=O)c2ccccc2Cl)n1C` is 1.35 log units lower in pIC50: 6.40 for the first, 5.05 for the second. The first is the more potent here.
